Laboratory results from patent US20100267803A1, “Regulators Of Fat Metabolism As Anti-Cancer Targets” (The Research Foundation of State University Of New York, priority 2008, published 2010).

What was measured:
Type in all cases: cell-based, human
FADS2 mRNA = experiment: qRT-PCR of FADS2 mRNA in BT474 cells; details: shRNA or 20 μM GW9662 for 48 h
Procedure: (§1) FIG. 4 NR1D1 and PBP coordinate fatty acid metabolism in breast cancer cells. (a) BT474, MDA-MB-361, MCF-7 and HMEC cells were stained with Oil-Red O lipid and hematoxylin nuclear stains. (b) Fat stores were quantified by BODIPY 493/503 lipid probe staining (Error bars are s.d from 3 individual experiments). (c) FASN, ACLY, ACACA and FADS2 mRNA levels of BT474 cells treated with luciferase (control), PBP or NR1D1 shRNAs, or with vehicle and 20 μM of GW9662 for 48 h, analyzed by qRT-PCRs. (Error bars are s.d from 3 experiments; ***P<0.001, **P=0.005) (d) BT474 cells were transfected with FASN, ACLY and ACACA shRNAs and co-transfected with GFP. Transfected cells were counted at 24 h and 72 h and the 72h-to-24 h ratio for each shRNA was calculated and expressed as % of the control shRNA (luciferase). (Error bars are s.d from 3 individual experiments; **P<0.01, ***P<0.002). (e) BODIPY images and (f) quantification of BT474 cells transfected with luciferase (control), PBP or NR1D1 shRNAs and co-transfected with DsRed (Error bars are s.d from 3 individual experiments; ***P<0.03). Arrows indicate transfected cells.
(§2) Cell viability—apoptosis assays. […] At least 30 fields were imaged per single experiment. […] Immunoblotting. […] PCR reaction was run using standard conditions.

BMAL1 reporter = experiment: BMAL1 luciferase reporter assay in BT474 cells; details: 20 μM GW9662 for 48 h
Procedure: (§3) FIG. 2 NR1D1 and PBP are necessary for survival of ERBB2-positive cells. (a) PBP and NR1D1 mRNA levels of BT474 cells transfected with luciferase (control), PBP or NR1D1 shRNAs for 48 h, analyzed by qRT-PCRs. (Error bars are s.d from 3 experiments; ***P<0.003, **P=0.01, *P=0.02). (b) BMAL1 luciferase reporter activity of BT474 cells transfected with either empty vector (control), or NR1D1 shRNA for 48 h.
(§4) FIG. 3 PPAR. inhibition impacts NR1D1 expression and ERBB2-positive cells viability. (a) Cell counts of BT474, MDA-MB-361, MCF-7 and HMEC cells treated with vehicle, 10 and 20 μM of the PPAR. antagonist GW9662 for 72 hrs. Results represented as % of control (vehicle). (Error bars are s.d from 3 individual experiments; *P>0.2, **P<0.05, ***P<0.002). (b) BT474 cells treated with vehicle or 20 μM of GW9662 for 48 h were immuno-stained for cleaved Caspase-3. (c) Quantification of Caspase-3 signal. […] (d) aP2 and NR1D1 mRNA levels of BT474 cells treated with vehicle (control) and 20 μM of GW9662 for 48 h, analyzed by qRT-PCRs. […]
Reporter assays. […] Cells were lysed 48 h post-transfection and firefly (reporter) and renilla luciferase activities were measured using the Dual-Luciferase Reporter Assay kit (Promega) on a BioTek Synergy HT reader. The ratio of Firefly to Renilla luciferase activity was calculated and presented as percentage of control.

ERBB2 = ERBB2 western blot of BT474 cells
Procedure: (§5) FIG. 3 PPAR. inhibition impacts NR1D1 expression and ERBB2-positive cells viability. (a) Cell counts of BT474, MDA-MB-361, MCF-7 and HMEC cells treated with vehicle, 10 and 20 μM of the PPAR. antagonist GW9662 for 72 hrs. Results represented as % of control (vehicle). (Error bars are s.d from 3 individual experiments; *P>0.2, **P<0.05, ***P<0.002). (b) BT474 cells treated with vehicle or 20 μM of GW9662 for 48 h were immuno-stained for cleaved Caspase-3. (c) Quantification of Caspase-3 signal. (Error bars are s.d from 3 individual experiments; ***P=0.002). (d) aP2 and NR1D1 mRNA levels of BT474 cells treated with vehicle (control) and 20 μM of GW9662 for 48 h, analyzed by qRT-PCRs. (Error bars are s.d from 3 experiments; ***P<0.0006. (e) BMAL1-luc activity of BT474 cells treated with vehicle or 20 μM of GW9662 for 48 h. (Error bars are s.d from 3 individual experiments; **P=0.03). (f) Total ERBB2 western blot of BT474 cells treated with vehicle or 20 μM GW9662 for 72h. GAPDH was used as control.
as §2

aP2 (FABP4) mRNA = experiment: qRT-PCR of aP2 mRNA in BT474 cells; details: 20 μM GW9662 for 48 h
Procedure: as §5, §2

ACLY mRNA = experiment: qRT-PCR of ACLY mRNA in BT474 cells; details: shRNA or 20 μM GW9662 for 48 h
Procedure: as §1, §2

ACACA mRNA = experiment: qRT-PCR of ACACA mRNA in BT474 cells; details: shRNA or 20 μM GW9662 for 48 h
Procedure: as §1, §2

NR1D1 mRNA = experiment: qRT-PCR of NR1D1 mRNA in BT474 cells; details: 20 μM GW9662 for 48 h
Procedure: as §3
FIG. 3 PPAR. inhibition impacts NR1D1 expression and ERBB2-positive cells viability. (a) Cell counts of BT474, MDA-MB-361, MCF-7 and HMEC cells treated with vehicle, 10 and 20 μM of the PPAR. antagonist GW9662 for 72 hrs. Results represented as % of control (vehicle). (Error bars are s.d from 3 individual experiments; *P>0.2, **P<0.05, ***P<0.002). (b) BT474 cells treated with vehicle or 20 μM of GW9662 for 48 h were immuno-stained for cleaved Caspase-3. (c) Quantification of Caspase-3 signal. (Error bars are s.d from 3 individual experiments; ***P=0.002). (d) aP2 and NR1D1 mRNA levels of BT474 cells treated with vehicle (control) and 20 μM of GW9662 for 48 h, analyzed by qRT-PCRs. […]

BT474 cells = experiment: Apoptosis by cleaved Caspase-3 or activated Bax immunofluorescence; details: 48 h of shRNA or 20 μM GW9662
Procedure: Results are shown as percentage of control. (**P=0.03). (c) BT474 cells were transfected with luciferase (control), PBP and NR1D1 shRNAs and co-transfected with GFP. Green cells were counted at intervals and expressed as percentage of control. (Error bars are s.d from 3 individual experiments; *P<0.08, **P<0.03, ***P<0.005). (d) BT474 cells were transfected with luciferase (control), PBP or NR shRNAs for 48 h. Immunofluorescence was performed for cleaved Caspase-3 signal; cell nuclei were stained with Hoechst 33243. (e) Cells from […] were counted for cleaved Caspase-3 signal. (Error bars are s.d from 3 individual experiments; ***P<0.0003). (f) BT474 cells were transfected with luciferase (control) PBP, NR1D1 or PBP and NR1D1 shRNAs together and co-transfected with GFP. Transfected cells were counted at 24 h and 72 h and the 72 h-to-24 h ratio for each shRNA was calculated and expressed as % of the control shRNA (luciferase). (Error bars are s.d from 3 individual experiments; **P=0.01, ***P<0.002). (g) Cells from (f) were counted for cleaved Caspase-3 signal. (Error bars are s.d from 3 individual experiments; ***P<0.0001). (h) ERBB2 mRNA levels of BT474 cells transfected with luciferase (control), PBP or NR1D1 shRNAs for 48 h, analyzed by qRT-PCRs. (Error bars are s.d from 3 individual experiments; ***P=0.0001).
as §4, with “(b) BT474 cells treated with vehicle or 20 μM of GW9662 for 48 h were immuno-stained for cleaved Caspase-3.” left out
FIG. 5. (a) MDH1 and ME1 mRNA levels of BT474 cells treated with luciferase (control), PBP or NR1D1 shRNAs for 48 h, analyzed by qRT-PCRs. […] (d) Quantification of cleaved Caspase-3 signal from cells in (c). […]

[1] = system: BT474, MDA-MB-361, MCF-7 and HMEC cells; experiment: Cell counts after PPARγ antagonist treatment; details: 10 and 20 μM for 72 hrs; % of vehicle
Procedure: as §5, §2

FASN mRNA = experiment: qRT-PCR of FASN mRNA in BT474 cells; details: shRNA or 20 μM GW9662 for 48 h
Procedure: as §1, §2

**Q.** For `O=C(Nc1ccccc1)c1cc([N+](=O)[O-])ccc1Cl` [GW9662, reference compound], which FADS2 transcript levels (FADS2 mRNA) is on record?
**A.** The FADS2 transcript levels was “downregulated”.

**Q.** And the BMAL1 reporter activity (BMAL1 reporter)?
**A.** The BMAL1 reporter activity was “increased BMAL1 reporter activity”.

**Q.** And the ERBB2 protein levels (ERBB2; 20 μM GW9662 for 72h)?
**A.** Its ERBB2 protein levels is “Neither ERBB2 protein levels (FIG. 3f), nor ERBB2 phosphorylation (FIG. S3d) were significantly affected”.

**Q.** And the ERBB2 phosphorylation (ERBB2; GW9662 treatment)?
**A.** Its ERBB2 phosphorylation is “Neither ERBB2 protein levels (FIG. 3f), nor ERBB2 phosphorylation (FIG. S3d) were significantly affected”.

**Q.** And the “mRNA levels of aP2” value (aP2 (FABP4) mRNA)?
**A.** The value was “decreased mRNA levels of aP2”.

**Q.** And the ACLY transcript level (ACLY mRNA)?
**A.** The ACLY transcript level was “reduced”.

**Q.** What about the ACACA transcript level (ACACA mRNA) of the same compound?
**A.** Its ACACA transcript level is “reduced”.

**Q.** And the NR1D1 message levels (NR1D1 mRNA)?
**A.** Its NR1D1 message levels is “dramatically decreased”.

**Q.** And the apoptosis (BT474 cells)?
**A.** The apoptosis was “apoptosis of BT474 cells”.

**Q.** And the “sensitivity of cells to drug treatment (cell counts)” value [1]?
**A.** Its value is “ERBB2-positive cells were more sensitive to drug treatment than MCF-7 and HMEC cells”.

**Q.** And the FASN transcript level (FASN mRNA)?
**A.** Its FASN transcript level is “reduced”.
